Structures are written as SMILES.

Holding throughout (experiment): Cell proliferation assay (6 days, CellTiter-Glo)
In general terms: Cellular ATP, detected with luciferase, serves as a proxy for viable cell number.

The test system of one test is SU-DHL-5. Format: cell-based. Particulars: Homo sapiens, 144 h, DLBCL, EZH2 WT, read-out: AVERAGE GROWTH IC50. The source says:
(§1) Thus, Example 22 and Table 6 better reflect the inhibition of HZH2 inhibitors on cell lines, e.g. the lymphoma cell lines. DLBCL cell lines were the most sensitive to EZH2 inhibition (FIG. 11a). […] Evaluation of GSK126 in additional lymphoma cell lines and extensive genomic and epigenomic characterization will be required to fully elucidate the determinants of sensitivity among lymphoma subtypes.
(§2) Biochemical assays utilized the 5-member PRC2 complex (human Flag-EZH2, EED, SUZ12, AEBP2, RbAp48) containing either WT or mutant EZH2, [^3H-]SAM and the indicated peptide substrate; reactions were incubated for 30 minutes. Global histone modification levels were determined by ELISA or western blot methods using antibodies specific for total histone H3, H3K27me1, H3K27me2, or H3K27me3. Cell proliferation and Caspase-3/7 activity were assessed using CellTiter-Glo and Caspase-Glo 3/7 (Promega), respectively. Gene expression profiling was conducted using Affymetrix Human Genome U133 Plus 2.0 microarrays. Differentially-expressed probe sets were determined by fitting the data to a linear model using the limma statistical package (http://www.bioconductor.org) and carrying out pair-wise contrasts of treated versus control. Significant probe sets were filtered for detection (log2 signal threshold of 8), an average fold-change >2 or <−2, or >1.5 or <−1.5, where indicated, with p-values adjusted for multiple testing correction by FDR (Benjamini Hochberg)<0.1. H3K27me3 ChIP reads were aligned using Bowtie (56). H3K27me3 enrichment peaks were identified using SICER (57) with optimized parameters. A custom PERL script was utilized to quantify the average basal H3K27me3 ChIP-seq tag density across gene sets. All in vivo studies were conducted after review by the Institutional Animal Care and Use Committee at GSK and in accordance with the GSK Policy on the Care, Welfare and Treatment of Laboratory Animals. GSK126 and vehicle were administered to mice intraperitoneally. Two-tailed t-tests were conducted assuming two samples of equal variance.
(§3) The optimal cell seeding was determined empirically for all cell lines by examining the growth of a wide range of seeding densities in a 384-well format to identify conditions that permitted proliferation for 6 days. […] Plates were incubated for 6 days at 37° C. in 5% CO2. Cells were then lysed with CellTiter-Glo (Promega) and chemiluminescent signal was detected with a TECAN Safire2 microplate reader. In addition, an untreated plate of cells was harvested at the time of compound addition (T0) to quantify the starting number of cells. CTG values obtained after the 6 day treatment were expressed as a percent of the T0 value and plotted against compound concentration.

Another test deals with RPMI-6666. Format: cell-based. Particulars: Homo sapiens, 144 h, HODGKIN'S, EZH2 WT, read-out: AVERAGE GROWTH IC50.
Text: as §1, §2, §3

Another test deals with NU-DUL-1. It is filed as cell-based. To be noted: Homo sapiens, 144 h, B-NHL, EZH2 WT, read-out: AVERAGE GROWTH IC50.
Text: as §1, §2, §3

In the next test the test system is Hs 445. It is filed as cell-based. Particulars: Homo sapiens, 144 h, HODGKIN'S, EZH2 WT, read-out: AVERAGE GROWTH IC50.
Text: as §1, §2, §3

In another test the test system is OCI-LY-19. It is filed as cell-based. Particulars: Homo sapiens, OCI-LY19, 144 h, DLBCL, EZH2 WT, read-out: AVERAGE GROWTH IC50.
Text: as §1, §2, §3

The subject of another test is P3HR-1. Format: cell-based. To be noted: Homo sapiens, 144 h, BURKITT, EZH2 WT, read-out: AVERAGE GROWTH IC50.
Text: as §1, §2, §3

Another test has as its system MC116. It is filed as cell-based. Particulars: Homo sapiens, 144 h, B-NHL, EZH2 WT, read-out: AVERAGE GROWTH IC50.
Text: as §1, §2, §3

Another test relates to WILL-2. It is filed as cell-based. To be noted: Homo sapiens, 144 h, DLBCL, EZH2 WT, read-out: AVERAGE GROWTH IC50.
Text: as §1, §2, §3

The test system of a further test is U-2940. It is filed as cell-based. To be noted: Homo sapiens, 144 h, DLBCL, EZH2 WT, read-out: AVERAGE GROWTH IC50.
Text: as §1, §2, §3

The test system of another test is Daudi. Format: cell-based. To be noted: Homo sapiens, 144 h, BURKITT, EZH2 WT, read-out: AVERAGE GROWTH IC50.
Text: as §1, §2, §3

In the next test the test system is WILL-1. It is filed as cell-based. Particulars: Homo sapiens, 144 h, DLBCL, EZH2 D185H (HET), read-out: AVERAGE GROWTH IC50.
Text: as §1, §2, §3

A further test relates to Pfeiffer. It is filed as cell-based, human.
Text: as §1, §2, §3

The subject of a further test is KARPAS-422. Format: cell-based, human.
Text: as §1, §2, §3

For `CC[C@H](C)n1cc(C)c2c(C(=O)NCc3c(C)cc(C)[nH]c3=O)cc(-c3ccc(N4CCNCC4)nc3)cc21` [GSK126], the IC50 (commonly the midpoint of a concentration-inhibition curve) with SU-DHL-5 is 2300 nM; in the test on RPMI-6666 it was 1430 nM; with NU-DUL-1 it was 17.1 µM; in the test on Hs 445, 3.53 µM; with OCI-LY-19, 1020 nM; in the test with P3HR-1, 3.21 µM. For the same compound, the IC50 in the test on MC116 amounted to 10.2 µM; in the test with WILL-2 it was 27.5 µM; with U-2940, 4.56 µM; in the test with Daudi, 1260 nM; in the test with WILL-1, 5.53 µM; in the test with Pfeiffer (Homo sapiens, 144 h, […], 6 days, DLBCL, EZH2 A677G (HET), read-out: AVERAGE GROWTH IC50), 28 nM. For the same compound, the IC50 in the test on KARPAS-422 (Homo sapiens, 144 h, 6 days, DLBCL, EZH2 Y641F (HET), read-out: AVERAGE GROWTH IC50) is 232 nM. Further, the “time after which net decreases in cell number were evident” value in the test with Pfeiffer is listed as 3 days. Also, in the test on Pfeiffer, the “time after which potent inhibition of cell proliferation was observed” value stood at 2 days. The “time required for maximal potency on growth” value in the test with KARPAS-422 was in the range of 6 to 7 days.

(Values after patent publication US20170348306A1, “METHODS OF TREATING CANCER” (GLAXOSMITHKLINE LLC, priority 2011, published 2017).)
